Data as given in ChEMBL document CHEMBL5329192, “Synthesis, biological activities, and future perspectives of steroidal monocyclic pyridines” (RSC Med Chem, 2023).
pIC50: −log10 of the molar value.

Experiments:
HepG2 = test: Antiproliferative activity against human HepG2 cells assessed as reduction in cell growth incubated for 48 hrs by MTT assay; type: functional, cell-based; conditions: HepG2, 48 h
SK-OV-3 = test: Antiproliferative activity against human SK-OV-3 cells assessed as reduction in cell growth incubated for 48 hrs by MTT assay; type: functional, cell-based; conditions: SK-OV-3, 48 h
HeLa = test: Antiproliferative activity against human HeLa cells assessed as reduction in cell growth incubated for 48 hrs by MTT assay; type: functional, cell-based
MCF7 = test: Antiproliferative activity against human MCF7 cells assessed as reduction in cell growth incubated for 48 hrs by MTT assay; type: functional, cell-based; conditions: MCF7, 48 h
[1] = Cytotoxicity against human HEp-2 cells assessed as reduction in cell viability incubated for 48 hrs by MTT assay; type: toxicity, cell-based

pIC50 (HepG2)	pIC50 (SK-OV-3)	pIC50 (HeLa)	pIC50 (MCF7)	SMILES	CC50 at 48 h [1] [µM]
3.99	4.72	4.14	4.32	C[C@]12CC[C@H]3[C@@H](CC=C4C[C@@H](O)CC[C@@]43C)[C@@H]1CC[C@@H]2c1cc(-c2ccncc2)c(C#N)c(N)n1	
				CC(=O)O[C@H]1CC[C@@]2(C)C(=CC[C@H]3[C@@H]4CC[C@H](c5cc(-c6ccc(F)cc6F)c(C#N)c(N)n5)[C@@]4(C)CC[C@@H]32)C1	174
4.26	4.53	3.97	3.97	COc1ccc(-c2cc([C@H]3CC[C@H]4[C@@H]5CC=C6C[C@@H](O)CC[C@]6(C)[C@H]5CC[C@]34C)nc(N)c2C#N)cc1OC	
4.67	4.66	4.66	4.39	C[C@]12CC[C@H]3[C@@H](CC=C4C[C@@H](O)CC[C@@]43C)[C@@H]1CC[C@@H]2c1cc(-c2cccc(OCc3ccccc3)c2)c(C#N)c(N)n1	
				CC(=O)O[C@H]1CC[C@@]2(C)C(=CC[C@H]3[C@@H]4CC[C@H](c5cc(-c6ccc(C#N)cc6)c(C#N)c(N)n5)[C@@]4(C)CC[C@@H]32)C1	39.3
				CC(=O)O[C@H]1CC[C@@]2(C)C(=CC[C@H]3[C@@H]4CC[C@H](c5cc(-c6ccccc6)c(C#N)c(N)n5)[C@@]4(C)CC[C@@H]32)C1	227
4.57	4.55	4.57	4.51	CCOc1ccc(-c2cc([C@H]3CC[C@H]4[C@@H]5CC=C6C[C@@H](O)CC[C@]6(C)[C@H]5CC[C@]34C)nc(N)c2C#N)cc1	
4.12	4.04	3.98	4.52	C[C@]12CC[C@H]3[C@@H](CC=C4C[C@@H](O)CC[C@@]43C)[C@@H]1CC[C@@H]2c1cc(-c2cccnc2)c(C#N)c(N)n1	
4.38	4.75	4.33	4.54	C[C@]12CC[C@H]3[C@@H](CC=C4C[C@@H](O)CC[C@@]43C)[C@@H]1CC[C@@H]2c1cc(-c2cccc(Br)c2)c(C#N)c(N)n1	
4.55	4.95	4.73	4.47	C[C@]12CC[C@H]3[C@@H](CC=C4C[C@@H](O)CC[C@@]43C)[C@@H]1CC[C@@H]2c1cc(-c2ccccc2Br)c(C#N)c(N)n1	
4.59	4.86	4.79	4.73	C[C@]12CC[C@H]3[C@@H](CC=C4C[C@@H](O)CC[C@@]43C)[C@@H]1CC[C@@H]2c1cc(-c2ccco2)c(C#N)c(N)n1	
4.82	5.12	4.92	4.92	C[C@]12CC[C@H]3[C@@H](CC=C4C[C@@H](O)CC[C@@]43C)[C@@H]1CC[C@@H]2c1cc(-c2ccc(Br)cc2)c(C#N)c(N)n1	
4.86	5.15	5.13	5.20	C[C@]12CC[C@H]3[C@@H](CC=C4C[C@@H](O)CC[C@@]43C)[C@@H]1CC[C@@H]2c1cc(-c2cccc(O)c2)c(C#N)c(N)n1	
4.30	4.76	4.82	4.77	COc1ccc(-c2cc([C@H]3CC[C@H]4[C@@H]5CC=C6C[C@@H](O)CC[C@]6(C)[C@H]5CC[C@]34C)nc(N)c2C#N)cc1O	
4.80	4.58	4.20	4.72	C[C@]12CC[C@H]3[C@@H](CC=C4C[C@@H](O)CC[C@@]43C)[C@@H]1CC[C@@H]2c1cc(-c2ccc(OCc3ccccc3)cc2)c(C#N)c(N)n1	
4.38	4.47	4.41	3.98	C[C@]12CC[C@H]3[C@@H](CC=C4C[C@@H](O)CC[C@@]43C)[C@@H]1CC[C@@H]2c1cc(-c2ccc(OCc3ccccc3)c(OCc3ccccc3)c2OCc2ccccc2)c(C#N)c(N)n1	
